Earlier results as cited in patent US20250152503A1, “IMPLANTABLE DEVICES FOR THE SUSTAINED DELIVERY OF AN OPIOID ANTAGONIST AND METHODS FOR TREATING INFLAMMATORY, NEUROINFLAMMATORY AND METABOLIC DISORDERS” (Delpor, Inc., priority 2022, published 2025).

Columns and labels:
[1] = target: Toll-like receptor 4 (TLR4) (Homo sapiens, UniProt O00206+Q9Y6Y9)
[2] = 25° C.
[3] = oral, typical dose 50 mg/day

Toll-like receptor 4 (TLR4), sequence (O00206 24-839, species assumed): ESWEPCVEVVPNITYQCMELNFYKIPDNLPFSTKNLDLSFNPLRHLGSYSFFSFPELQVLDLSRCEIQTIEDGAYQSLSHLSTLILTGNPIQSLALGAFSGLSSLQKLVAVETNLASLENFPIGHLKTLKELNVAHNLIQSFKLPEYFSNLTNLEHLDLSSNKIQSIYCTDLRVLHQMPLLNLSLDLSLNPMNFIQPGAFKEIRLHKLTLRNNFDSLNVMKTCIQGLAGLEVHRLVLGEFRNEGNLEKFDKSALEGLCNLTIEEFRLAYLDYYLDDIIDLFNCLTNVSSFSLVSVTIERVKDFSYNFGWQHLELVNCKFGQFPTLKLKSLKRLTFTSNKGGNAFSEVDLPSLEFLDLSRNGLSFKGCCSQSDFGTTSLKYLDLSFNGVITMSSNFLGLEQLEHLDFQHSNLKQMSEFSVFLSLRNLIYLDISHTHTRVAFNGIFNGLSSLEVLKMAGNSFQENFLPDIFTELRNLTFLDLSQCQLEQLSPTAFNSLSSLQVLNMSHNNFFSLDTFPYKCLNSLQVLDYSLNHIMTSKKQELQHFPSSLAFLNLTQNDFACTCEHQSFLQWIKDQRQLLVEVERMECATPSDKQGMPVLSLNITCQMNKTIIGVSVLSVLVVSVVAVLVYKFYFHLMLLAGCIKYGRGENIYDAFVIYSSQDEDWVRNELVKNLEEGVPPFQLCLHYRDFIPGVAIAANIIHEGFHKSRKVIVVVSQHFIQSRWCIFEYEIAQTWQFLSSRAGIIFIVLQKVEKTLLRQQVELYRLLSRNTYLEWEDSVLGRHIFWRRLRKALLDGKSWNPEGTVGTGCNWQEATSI
Toll-like receptor 4 (TLR4), sequence (Q9Y6Y9 17-160 limits assumed, species assumed): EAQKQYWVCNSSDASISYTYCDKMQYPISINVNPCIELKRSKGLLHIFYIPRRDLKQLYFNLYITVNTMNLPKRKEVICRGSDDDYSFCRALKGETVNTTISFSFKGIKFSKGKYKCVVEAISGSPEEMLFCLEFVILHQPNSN

| Compound | antagonism of TLR4 signaling [1] | reported aqueous solubility [2] [µg/mL] | average bioavailability [3] |
| --- | --- | --- | --- |
| C=CCN1CC[C@]23c4c5ccc(O)c4O[C@H]2C(=O)CC[C@]3(O)[C@H]1C5 [(+)-naloxone] | antagonize TLR4 signaling |  |  |
| O=C1CC[C@]2(O)[C@@H]3Cc4ccc(O)c5c4[C@]2(CCN3CC2CC2)[C@@H]1O5 [(+)-naltrexone] | antagonize TLR4 signaling |  |  |
| C=C1CC[C@@]2(O)[C@H]3Cc4ccc(O)c5c4[C@@]2(CCN3CC2CC2)[C@H]1O5 [nalmefene] |  | 140 |  |
| O=C1CC[C@@]2(O)[C@H]3Cc4ccc(O)c5c4[C@@]2(CCN3CC2CC2)[C@H]1O5 [naltrexone] |  | 667 | 5-40% |
| (−)-nalmefene | antagonize TLR4 signaling |  |  |
| (−)-naloxone | antagonize TLR4 signaling |  |  |
| (−)-naltrexone | antagonize TLR4 signaling |  |  |
